Assay results from PubChem BioAssay AID2060902 (Molecular Pharmacology Branch, DTP, NCI, 2025).

Tested on: 485368-065-R3-J5-PDC spheroids with HUVEC/MSC, viability
Experiment: Anticancer human tumor 485368-065-R3-J5-PDC patient-derived pancreatic carcinoma cell line growth inhibition [RAS]
Conditions: for IC50: curve of first compound; for viability, T/C: stronger effect = lower value
From the text: RAS pathway inhibitors in Combinations in Complex Spheroids
A high-throughput screen of multi-cell type tumor spheroids was designed to identify active combinations of RAS pathway inhibitors and targeted small molecules. Complex spheroids include a stromal component modeled by human endothelial cells (HUVEC) and fibroblasts modeled by human mesenchymal stem cells (MSCs). The concentration ranges selected for each drug and investigational agent were based upon clinically achievable concentrations if the clinical Cmax of the agent was known.
Compounds. The drugs and investigational agents: abemaciclib (NSC768073), cobimetinib (NSC768068), divarasib (GDC6063, NSC841802), docetaxel (NSC628503), GDC-1971 (RLY-1971, NSC841576), gemcitabine (NSC613327), inavolisib (NSC800729), ipatasertib (NSC767898), KB-0742 (NSC834161), MRTX-1133 (NSC836407), osimertinib (NSC779217), RMC-4630 (NSC839698), RMC-6236 (NSC851965), RMC-6291 (NSC852671), Ro-3306 (NSC812927), sapanisertib (NSC764658), SN-38 (NSC673596), staurosporine (NSC755774), SY5609 (NSC837396), and tovorafenib (DAY101, NSC766906), were obtained from the National Cancer Institute (NCI) Developmental Therapeutics Program Chemical Repository. The FDA-approved anticancer drug set is available from the NCI Developmental Therapeutics Program. […] The stock solutions were prepared in dimethyl sulfoxide (DMSO, Sigma-Aldrich, St. Louis, MO, cat. D2650) at 800-fold the tested concentration and stored at -70 degrees C prior to their use. All drugs and investigational agents were tested over a range starting from a high concentration at or near the clinical Cmax and decreasing in half-log increments. If the clinical Cmax for an agent had not been determined, the highest concentration tested was 10 microM.
Cell Culture. All cells were maintained in an incubator at 37 degrees C and 5% CO2 with 95% humidity. The PDC lines were cultured according to standard operating procedures established by the NCI PDMR. All PDCs were thawed and cultured in Matrigel-coated flasks prepared with a working solution of 1X Ham's F-12 nutrient mix, without supplementation (Invitrogen, Waltham, MA, cat. 11765054), 100 U/mL penicillin-streptomycin (Invitrogen, cat. 15140122), and 2.5% Matrigel (Corning Inc., Corning, NY, cat. 354248) for the first three passages. The 362531-283-R-J2-PDC and 782815-120-R-J1-PDC lines were cultured in 6C/Colon 1B media, which includes advanced DMEM/F-12 (Thermo Fisher Scientific, cat. 12634028), 10 mM HEPES (Thermo Fisher Scientific, cat. 15630080), 1X GlutaMAX supplement (Thermo Fisher Scientific, cat. 35050061), 0.1 mg/mL primocin (InvivoGen, San Diego, CA, cat. ant-pm-2), 10% defined fetal bovine serum, heat inactivated (HyClone Laboratories Inc., Logan, UT, cat. SH30070.03HI), 50% L-WRN conditioned media (ATCC, cat. CRL-3276), 1.25 mM N-Acetyl-L-cysteine (Sigma-Aldrich, cat. A9165), 10 mM nicotinamide (Sigma-Aldrich, cat. N0636), 1X B-27 supplement (Thermo Fisher Scientific, cat. 17504044), 1X N-2 supplement (Thermo Fisher Scientific, cat. 17502048), 50 ng/mL human EGF (Thermo Fisher Scientific, cat. PHG0311), and 10 microM Y-27632 dihydrochloride (Tocris Bioscience, cat. 1254). The K12877-001-R-J1-PDC line was cultured in 6I media, which includes all 6C/Colon 1B media plus 10 ng/mL human FGF-10 (PeproTech, cat. 100-26), 1 ng/mL human FGF-2 (PeproTech, cat. 100-18B), 1 µM prostaglandin E2 (Tocris Bioscience, cat. 2296), […] hydrocortisone (Sigma-Aldrich, cat. H4001), and […] bovine insulin (Sigma-Aldrich, cat. I6634). The K86415-001-R-J1-PDC line was cultured in 6D media, which includes all 6C/Colon 1B media components minus the L-WRN conditioned media. The 485176-168-R4-J1-PDC was cultured in PANC media, which includes all 6C/Colon 1B media plus 100 ng/mL human FGF-10 (PeproTech, cat. 100-26), 500 nM SB-431542 (Selleckchem, cat. S1067), and 10 nM gastrin (Tocris Bioscience, cat. 3006). […]

[1] = second compound 0.0316 µM, first compound 0.0316 µM
[2] = second compound 0.0316 µM, first compound 0.1 µM
[3] = second compound 0.0316 µM, first compound 0.316 µM
[4] = second compound 0.0316 µM, first compound 1 µM
[5] = second compound 0.0316 µM, first compound 3.16 µM
[6] = second compound 0.0316 µM, first compound 10 µM
[7] = second compound 0.1 µM, first compound 0.0316 µM
[8] = second compound 0.1 µM, first compound 0.1 µM
[9] = second compound 0.1 µM, first compound 0.316 µM
[10] = second compound 0.1 µM, first compound 1 µM
[11] = second compound 0.1 µM, first compound 3.16 µM
[12] = second compound 0.1 µM, first compound 10 µM
[13] = second compound 0.316 µM, first compound 0.0316 µM
[14] = second compound 0.316 µM, first compound 0.1 µM
[15] = second compound 0.316 µM, first compound 0.316 µM
[16] = second compound 0.316 µM, first compound 1 µM
[17] = second compound 0.316 µM, first compound 3.16 µM
[18] = second compound 0.316 µM, first compound 10 µM
[19] = second compound 1 µM, first compound 0.0316 µM
[20] = second compound 1 µM, first compound 0.1 µM
[21] = second compound 1 µM, first compound 0.316 µM
[22] = second compound 1 µM, first compound 1 µM
[23] = second compound 1 µM, first compound 3.16 µM
[24] = second compound 1 µM, first compound 10 µM
[25] = second compound 3.16 µM, first compound 0.0316 µM
[26] = second compound 3.16 µM, first compound 0.1 µM
[27] = second compound 3.16 µM, first compound 0.316 µM
[28] = second compound 3.16 µM, first compound 1 µM
[29] = second compound 3.16 µM, first compound 3.16 µM
[30] = second compound 3.16 µM, first compound 10 µM
[31] = second compound 10 µM, first compound 0.0316 µM
[32] = second compound 10 µM, first compound 0.1 µM
[33] = second compound 10 µM, first compound 0.316 µM
[34] = second compound 10 µM, first compound 1 µM
[35] = second compound 10 µM, first compound 3.16 µM
[36] = second compound 10 µM, first compound 10 µM
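Further: spheroids exposed to agents for seven days before readout.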

## CCC(CC)c1cc(NC2CCC(N)C2)n2nccc2n1 (stereo unspecified) + C#Cc1c(F)ccc2cc(O)cc(-c3ncc4c(N5CC6CCC(C5)N6)nc(OCC56CCCN5CC(F)C6)nc4c3F)c12
Second compound 0.0316 µM
  IC50: 2030 nM
Second compound 0.1 µM
  IC50: 1940 nM
Second compound 0.316 µM
  IC50: 2010 nM
Second compound 1 µM
  IC50: 1980 nM
Second compound 3.16 µM
  IC50: 1830 nM
Second compound 10 µM
  IC50: 1250 nM
[1]
  viability, T/C: 108%
[2]
  viability, T/C: 116%
[3]
  viability, T/C: 110%
[4]
  viability, T/C: 147%
[5]
  viability, T/C: 4.74%
[6]
  viability, T/C: 7.01%
[7]
  viability, T/C: 107%
[8]
  viability, T/C: 95.8%
[9]
  viability, T/C: 109%
[10]
  viability, T/C: 129%
[11]
  viability, T/C: 4.21%
[12]
  viability, T/C: 7.06%
[13]
  viability, T/C: 99.4%
[14]
  viability, T/C: 105%
[15]
  viability, T/C: 114%
[16]
  viability, T/C: 152%
[17]
  viability, T/C: 5.79%
[18]
  viability, T/C: 7.25%
[19]
  viability, T/C: 91.1%
[20]
  viability, T/C: 109%
[21]
  viability, T/C: 121%
[22]
  viability, T/C: 138%
[23]
  viability, T/C: 4.74%
[24]
  viability, T/C: 6.22%
[25]
  viability, T/C: 86.7%
[26]
  viability, T/C: 83.8%
[27]
  viability, T/C: 96.9%
[28]
  viability, T/C: 128%
[29]
  viability, T/C: 4.66%
[30]
  viability, T/C: 6.53%
[31]
  viability, T/C: 47.2%
[32]
  viability, T/C: 42.1%
[33]
  viability, T/C: 61.7%
[34]
  viability, T/C: 93.3%
[35]
  viability, T/C: 3.14%
[36]
  viability, T/C: 6.12%

## Cc1nc(N2CCC3(CC2)COC(C)C3N)c(CO)nc1Sc1ccnc(N)c1Cl (stereo unspecified) + C#Cc1c(F)ccc2cc(O)cc(-c3ncc4c(N5CC6CCC(C5)N6)nc(OCC56CCCN5CC(F)C6)nc4c3F)c12
Second compound 0.0316 µM
  IC50: > 10000 nM
Second compound 0.1 µM
  IC50: > 10000 nM
Second compound 0.316 µM
  IC50: 1910 nM
Second compound 1 µM
  IC50: 821 nM
Second compound 3.16 µM
  IC50: 106 nM
Second compound 10 µM
  IC50: < 31.6 nM
[1]
  viability, T/C: 98.3%
[2]
  viability, T/C: 88.5%
[3]
  viability, T/C: 87.3%
[4]
  viability, T/C: 75.1%
[5]
  viability, T/C: 60%
[6]
  viability, T/C: 58.8%
[7]
  viability, T/C: 110%
[8]
  viability, T/C: 92.3%
[9]
  viability, T/C: 74%
[10]
  viability, T/C: 62.7%
[11]
  viability, T/C: 63.6%
[12]
  viability, T/C: 51.8%
[13]
  viability, T/C: 101%
[14]
  viability, T/C: 89.6%
[15]
  viability, T/C: 78.5%
[16]
  viability, T/C: 52.4%
[17]
  viability, T/C: 47.5%
[18]
  viability, T/C: 44%
[19]
  viability, T/C: 91.5%
[20]
  viability, T/C: 77.2%
[21]
  viability, T/C: 56.7%
[22]
  viability, T/C: 47.6%
[23]
  viability, T/C: 42.2%
[24]
  viability, T/C: 30%
[25]
  viability, T/C: 65.9%
[26]
  viability, T/C: 49.7%
[27]
  viability, T/C: 39.1%
[28]
  viability, T/C: 31.9%
[29]
  viability, T/C: 24.7%
[30]
  viability, T/C: 21.6%
[31]
  viability, T/C: 36.3%
[32]
  viability, T/C: 29.7%
[33]
  viability, T/C: 24.3%
[34]
  viability, T/C: 19.9%
[35]
  viability, T/C: 19.7%
[36]
  viability, T/C: 12.8%

## NC1c2ccccc2OC12CCN(c1cnc3c(N4CCCc5ncccc54)n[nH]c3n1)CC2 (stereo unspecified) + C#Cc1c(F)ccc2cc(O)cc(-c3ncc4c(N5CC6CCC(C5)N6)nc(OCC56CCCN5CC(F)C6)nc4c3F)c12
Second compound 0.0316 µM
  IC50: > 10000 nM
Second compound 0.1 µM
  IC50: 2380 nM
Second compound 0.316 µM
  IC50: 1020 nM
Second compound 1 µM
  IC50: 117 nM
Second compound 3.16 µM
  IC50: < 31.6 nM
Second compound 10 µM
  IC50: < 31.6 nM
[1]
  viability, T/C: 82.1%
[2]
  viability, T/C: 79.2%
[3]
  viability, T/C: 70.9%
[4]
  viability, T/C: 66.3%
[5]
  viability, T/C: 72.1%
[6]
  viability, T/C: 55%
[7]
  viability, T/C: 76%
[8]
  viability, T/C: 72.9%
[9]
  viability, T/C: 61.7%
[10]
  viability, T/C: 60.7%
[11]
  viability, T/C: 44.2%
[12]
  viability, T/C: 43.9%
[13]
  viability, T/C: 69.9%
[14]
  viability, T/C: 61.6%
[15]
  viability, T/C: 58.6%
[16]
  viability, T/C: 54.4%
[17]
  viability, T/C: 35.5%
[18]
  viability, T/C: 28.8%
[19]
  viability, T/C: 60.3%
[20]
  viability, T/C: 47.4%
[21]
  viability, T/C: 43.4%
[22]
  viability, T/C: 37.9%
[23]
  viability, T/C: 28.9%
[24]
  viability, T/C: 18.9%
[25]
  viability, T/C: 40%
[26]
  viability, T/C: 33.7%
[27]
  viability, T/C: 27.5%
[28]
  viability, T/C: 23.7%
[29]
  viability, T/C: 17.8%
[30]
  viability, T/C: 17.5%
[31]
  viability, T/C: 23.3%
[32]
  viability, T/C: 20.3%
[33]
  viability, T/C: 17.9%
[34]
  viability, T/C: 14.2%
[35]
  viability, T/C: 13%
[36]
  viability, T/C: 12.8%
